These results are taken from patent publication US20250195475A1, “CDK2 INHIBITOR AND PREPARATION METHOD AND USE THEREOF” (INVENTISBIO CO., LTD., priority 2022, published 2025).

In the test the target is CDK2/CyclinE1 (Homo sapiens (Human), UniProt P24941). As to the kind of experiment: CDK2 kinase assay (TR-FRET). The format is biochemical. As to conditions: CDK2/CyclinE1 0.5 nM, ATP 50 μM. The protocol: The purpose of these assays is to evaluate the inhibition of small molecule inhibitors by using TR-FRET assay.
Compound Preparation. Dissslove the compounds into DMSO solution to make 10 mM DMSO stock. Serially dilute the stock solution from highest concentration down to lowest in DMSO to make the compound stock plate (100× stock plates). To make 5× compound intermediate plate, add 38 μL of assay buffer (50 mM HEPES, pH 7.5, 0.05 mg/mL BSA, 10 mM MgCl2, 1 mM EGTA, 0.01% Tween-20, 2 mM DTT) into each well of the V-bottom plate; then transfer 2 μL of the stock compound solution of each concentration from the compound stock plate (100× stock), and mix well.
Enzyme reaction. Transfer 2 μL compound from 5× intermediate plate into assay plate, then add 4 μL/well 2.5× Enzyme mix to assay plate, incubation for 10 min at room temperature. For positive control wells, add 4 μL/well assay buffer instead of Enzyme mix. Then add 4 μL/well 2.5× Substrate mix to assay plate, and incubation at 25° C. for 30 min at room temperature. After reaction, 10 μL 2× Detection mix (final 15 mM EDTA, 1× LANCE Detection Buffer, 0.5 nM Detection antibody) was added and incubated for 1 h prior to detection with excitation and emission at 320 and 665 nm (Tecan Spark® TR-FRET mode Tecan).
Inhibition rate (IR) of the tested compounds was determined by the following formula: IR (%)=(average High control−compound well)/(average High control−average Low control)*100%. Fit the compound IC50 from non-linear regression equation: Y=Bottom+(Top−Bottom)/(1+10^((Log IC50−X)*HillSlope)). X: Log of cpd concentration; Y: Inhibition rate (TR); Top and Bottom: Plateaus in same units as Y, log IC50: same log units as X; HillSlope: Slope factor or Hill slope.
For orientation: TR-FRET usually uses a lanthanide donor and a delayed reading to cut background.

What is called IC50 is the concentration needed to halve the response being measured. A higher IC50 goes with weaker potency.

As for `CC(C)NC(=O)O[C@@H]1CO[C@H](c2cc(NC(=O)c3cc(C(F)F)nn3C)n[nH]2)C1` [Compound 112], the IC50 stood at 13.4 nM.
Next, `CC(C)NC(=O)O[C@@H]1CC[C@H](c2cc(NC(=O)C3[C@H]4COC[C@@H]34)n[nH]2)C1` (stereo partly shown) [Compound 115]: 54.5 nM.
Next, `CC(C)NC(=O)O[C@@H]1CO[C@H](c2cc(NC(=O)Cc3cc(F)cc(C#N)c3)n[nH]2)C1` [Compound 116]: 4.5 nM.
`CC1(NC(=O)O[C@@H]2CC[C@H](c3cc(NC(=O)[C@@H]4CCN(S(C)(=O)=O)C4)n[nH]3)C2)CCC1` [Compound 119] returned a 50% inhibitory concentration (IC50) of 0.4 nM.
Then `COC[C@@H]1CCN(C(=O)Nc2cc([C@H]3CC[C@@H](OC(=O)NC(C)C)C3)[nH]n2)C1` [Compound 120], with 116 nM; and `CC(C)NC(=O)O[C@H]1CO[C@@H](c2cc(NC(=O)Cc3ccc(OCCN4CCCC4)cc3)n[nH]2)C1` [Compound 121], with 3.2 nM.
On to `COC[C@H]1CCN(C(=O)Nc2cc([C@H]3CC[C@@H](OC(=O)NC(C)C)C3)[nH]n2)C1` [Compound 123], for which the midpoint of inhibition, the IC50, lay at 265 nM.
Then `CS(=O)(=O)N1CC[C@@H](C(=O)Nc2cc([C@H]3CC[C@@H](OC(=O)NC4(C(F)F)CC4)C3)[nH]n2)C1` [Compound 124], with 1.2 nM; and `COC[C@H]1C[C@@H]1C(=O)Nc1cc([C@H]2CC[C@@H](OC(=O)NC34CC(F)(C3)C4)C2)[nH]n1` [Compound 125], with 1.3 nM.
Then `CC(C)NC(=O)O[C@@H]1CC[C@H](c2cc(NC(=O)[C@@H]3C[C@@H](C)N(S(C)(=O)=O)C3)n[nH]2)C1` [Compound 127], with 3.6 nM.
In the case of `CC(C)NC(=O)O[C@@H]1COC(c2cc(NC(=O)Cc3ccc(OCCN4CCCC4)cc3)n[nH]2)C1` (stereo partly shown) [Compound 128], the concentration for half-maximal inhibition (IC50) was 14.6 nM.
Then `Cc1occc1C(=O)Nc1cc([C@H]2C[C@@H](OC(=O)NC(C)C)CO2)[nH]n1` [Compound 129], with 11.8 nM.
Then `CC(C)NC(=O)O[C@@H]1CO[C@H](c2cc(NC(=O)[C@@H]3CCN(S(=O)(=O)C4CC4)C3)n[nH]2)C1` [Compound 132], with 7.2 nM; and `Cc1occc1C(=O)Nc1cc([C@@H]2C[C@H](OC(=O)NC(C)C)CO2)[nH]n1` [Compound 133], with 50.1 nM.
Next, `CC(C)NC(=O)O[C@H]1CO[C@@H](c2cc(NC(=O)Cc3ccccc3S(C)(=O)=O)n[nH]2)C1` [Compound 134]: 2.2 nM.
As for `CC(C)NC(=O)O[C@@H]1CO[C@H](c2cc(NC(=O)Cc3ccccc3S(C)(=O)=O)n[nH]2)C1` [Compound 135], the IC50 is 13.5 nM.
On to `CC(C)NC(=O)O[C@@H]1CC[C@H](C2=CC(NC(=O)[C@H]3C[C@@H]3[C@@H](C)O)=NC2)C1` [Compound 137], for which inhibition was half-maximal at 5.3 nM (IC50).
Then `Cn1nccc1C(=O)Nc1cc([C@H]2C[C@@H](OC(=O)NC3(C)CCC3)CO2)[nH]n1` [Compound 138], with 1 nM.
Next, `CC1(NC(=O)O[C@@H]2CC[C@H](c3cc(NC(=O)[C@@H]4CCN(S(=O)(=O)C5CC5)C4)n[nH]3)C2)CCC1` [Compound 139]: 0.7 nM; `CC1(NC(=O)O[C@@H]2CC[C@H](c3cc(NC(=O)[C@@H]4CCN(S(=O)(=O)C5CC5)C4)n[nH]3)C2)CC1` [Compound 140]: 0.7 nM; `C#C[C@H]1C[C@@H]1C(=O)Nc1cc([C@H]2CC[C@@H](OC(=O)NC3(C)CC3)C2)[nH]n1` [Compound 141]: 0.5 nM.
Then `COC[C@H]1C[C@@H]1C(=O)Nc1cc([C@H]2CC[C@@H](OC(=O)NC34CC(C(F)F)(C3)C4)C2)[nH]n1` [Compound 142], with 1.6 nM; and `C#C[C@H]1C[C@@H]1C(=O)Nc1cc([C@@H]2CC[C@H](OC(=O)NC(C)C)C2)[nH]n1` [Compound 145], with 0.9 nM; and `CC(C)NC(=O)O[C@@H]1CC[C@H](c2cc(NC(=O)C3CC3OCC(F)F)n[nH]2)C1` (stereo partly shown) [Compound 147], with 4.8 nM.
For the molecule `C#C[C@H]1C[C@@H]1C(=O)Nc1cc([C@H]2C[C@@H](OC(=O)N[C@@H](C)CC)CO2)[nH]n1` [Compound 155], the IC50 is 4.5 nM.
Regarding `C#C[C@H]1C[C@@H]1C(=O)Nc1cc([C@@H]2C[C@H](OC(=O)N[C@@H](C)CC)CO2)[nH]n1` [Compound 156], the 50% inhibitory concentration (IC50) was 6 nM.
Next, `C#C[C@H]1C[C@@H]1C(=O)Nc1cc([C@@H]2C[C@H](OC(=O)NC3(C)CC3)CO2)[nH]n1` [Compound 157]: 2.9 nM.
For `C#C[C@H]1C[C@@H]1C(=O)Nc1cc([C@H]2C[C@@H](OC(=O)NC3(C)CCC3)CO2)[nH]n1` [Compound 158], the IC50 was determined as 1.1 nM.
Regarding `Cn1nccc1C(=O)Nc1cc([C@H]2C[C@@H](OC(=O)NC34CC(F)(C3)C4)CO2)[nH]n1` [Compound 159], it took 1.6 nM to reach half-maximal inhibition (IC50).
Then `Cn1nccc1C(=O)Nc1cc([C@@H]2C[C@H](OC(=O)NC34CC(F)(C3)C4)CO2)[nH]n1` [Compound 160], with 5.3 nM.
Next, `CC(C)NC(=O)O[C@@H]1CC[C@H](c2cc(NC(=O)[C@H]3C[C@@H]3C#CC(F)F)n[nH]2)C1` [Compound 161]: 1 nM.
As for `Cc1c(C2CC2C(=O)Nc2cc([C@H]3CC[C@@H](OC(=O)NC(C)C)C3)[nH]n2)cnn1C` (stereo partly shown) [Compound 162], it took 109 nM to reach half-maximal inhibition (IC50).
In turn, `C#C[C@H]1C[C@@H]1C(=O)Nc1cc([C@H]2C[C@@H](OC(=O)NC(C)C)CO2)[nH]n1` [Compound 164] gave an IC50 of 1.5 nM.
Then `C#C[C@H]1C[C@@H]1C(=O)Nc1cc([C@@H]2C[C@H](OC(=O)NC(C)C)CO2)[nH]n1` [Compound 165], with 4.7 nM.
Then `C#C[C@H]1C[C@@H]1C(=O)Nc1cc([C@H]2C[C@@H](OC(=O)NC(C)(C)C)CO2)[nH]n1` [Compound 166], with 0.9 nM; and `C#C[C@H]1C[C@@H]1C(=O)Nc1cc([C@@H]2C[C@H](OC(=O)NC(C)(C)C)CO2)[nH]n1` [Compound 167], with 1.4 nM; and `C#C[C@H]1C[C@@H]1C(=O)Nc1cc([C@H]2C[C@@H](OC(=O)NC(C)(C)CC)CO2)[nH]n1` [Compound 168], with 0.6 nM.
Then `C#C[C@H]1C[C@@H]1C(=O)Nc1cc([C@@H]2C[C@H](OC(=O)NC(C)(C)CC)CO2)[nH]n1` [Compound 169], with 1.9 nM; and `C#C[C@H]1C[C@@H]1C(=O)Nc1cc([C@H]2C[C@@H](OC(=O)NC3(C)CC3)CO2)[nH]n1` [Compound 170], with 0.8 nM.
Consider `C#C[C@H]1C[C@@H]1C(=O)Nc1cc([C@@H]2C[C@H](OC(=O)NC3(C)CCC3)CO2)[nH]n1` [Compound 171], for which the IC50 is 1.3 nM.
`CC(C)NC(=O)O[C@@H]1CC[C@H](c2cc(NC(=O)C3CN(S(=O)(=O)C4CC4)CC3C)n[nH]2)C1` (stereo partly shown) [Compound 172] showed an IC50 of 1.2 nM.
Next, `CC(C)NC(=O)O[C@@H]1CC[C@H](c2cc(NC(=O)C3CC34CCOC4)n[nH]2)C1` (stereo partly shown) [Compound 174]: 61.1 nM.
Next, `CC(C)NC(=O)O[C@@H]1CC[C@H](c2cc(NC(=O)C3CC34CCOC4)n[nH]2)C1` (stereo partly shown) [Compound 175]: 174 nM; `CC(C)NC(=O)O[C@@H]1CC[C@H](c2cc(NC(=O)C3CC34CCOC4)n[nH]2)C1` (stereo partly shown) [Compound 176]: 33 nM; `CC#C[C@H]1C[C@@H]1C(=O)Nc1cc([C@H]2CC[C@@H](OC(=O)NC(C)C)C2)[nH]n1` [Compound 177]: 1 nM.
With `CCC1(NC(=O)O[C@@H]2CO[C@H](c3cc(NC(=O)c4ccnn4C)n[nH]3)C2)CCC1` [Compound 178], the IC50 was determined as 1.4 nM.
In turn, `CC(C)NC(=O)O[C@@H]1CC[C@H](c2cc(NC(=O)[C@@H]3C[C@@H](C(C)C)N(S(C)(=O)=O)C3)n[nH]2)C1` [Compound 179] displayed an IC50 of 12.6 nM.
`C#C[C@H]1C[C@@H]1C(=O)Nc1cc([C@H]2C[C@@H](OC(=O)NC3(C)COC3)CO2)[nH]n1` [Compound 182]: half-maximal inhibition (IC50) was put at 4 nM.
Next, `CCC1(NC(=O)O[C@H]2CO[C@@H](c3cc(NC(=O)c4ccnn4C)n[nH]3)C2)CCC1` [Compound 183]: 0.5 nM.
Next, `COC[C@H]1C[C@@H]1C(=O)Nc1cc([C@@H]2CC[C@H](OC(=O)NC3(C)CC3)C2)[nH]n1` [Compound 184]: 0.5 nM.
Then `CCC(C)(C)NC(=O)O[C@H]1CO[C@@H](c2cc(NC(=O)c3ccnn3C)n[nH]2)C1` [Compound 190], with 0.6 nM.
`C#C[C@H]1C[C@@H]1C(=O)Nc1cc([C@H]2CC[C@@H](OC(=O)NC34CC(F)(C3)C4)C2)[nH]n1` [Compound 194] registered an IC50 of 0.7 nM.
Then `C#C[C@H]1C[C@@H]1C(=O)Nc1cc([C@@H]2C[C@H](OC(=O)NC3(C)COC3)CO2)[nH]n1` [Compound 197], with 15.7 nM; and `C#CC1(NC(=O)O[C@@H]2CO[C@H](c3cc(NC(=O)c4ccnn4C)n[nH]3)C2)CCC1` [Compound 198], with 6.8 nM; and `COCc1cc(C(=O)Nc2cc([C@H]3CC[C@@H](OC(=O)N[C@H]4C[C@@]5(CCOC5)C4)C3)[nH]n2)n(C)n1` [Compound 201], with 4.6 nM.
